From US20260216085A1, “NANOPARTICLES TO ENHANCE THE EFFECTS OF DRUGS FOR THE TREATMENT OF CANCER” (UNIVERSIDAD DE GRANADA, priority 2022, published 2026)

Tests used:
[1] = Release kinetics / degradation of OLA and AA in PBS by UV-Vis; type: physicochemical; settings: buffer, pH 7.4
Protocol: Briefly, 0.9 mg of NP was weighed into a quartz cuvette and then 3 mL of PBS solution (pH=7.4) was carefully added to the cuvette. The absorbance curve from 200 nm to 400 nm was measured continuously every half hour until the plateau was reached. The amount of OLA and ascorbic acid released was determined at wavelengths of 311 nm and 265 nm, respectively. This technique allowed simultaneous quantification of the two molecules by monitoring the absorbance at 311 nm (OLA) and 265 nm (AA) (FIG. 1).
All measurements were performed in triplicate.
The degradation of AA followed an exponential decay according to the equation y(t)=e^−t/τ, where τ corresponds to the half-life of the molecule.

[2] = system: PANC-1 cell migration; assay: Cell migration assay; type: cell-based, Human; settings: PANC-1, Cl25 of OLA, monitored 72 h
Protocol: PANC-1 cell migration is a phenomenon related to PARP1 inhibition. To study the effect of NP-ACP-OLA-AA with respect to free OLA and OLA-NPs, the following treatment was carried out with the PANC-1 cell line. NP-ACP-AA was used as a control.
The PANC- 1 cell line was seeded in a 12-well plate (Thermo Fisher) and grown to 95-100% confluence in medium supplemented with DMEM (Sigma-Aldrich). Then, a […] was manually performed using a pipette tip. The next day, dead cells were removed using phosphate buffered saline (PBS) and the culture medium was replaced with DMEM without FBS to prevent cell proliferation. Then, Cl25 of OLA concentration (free and OLA-NPs) was added to the wells and the cells were incubated for 72 h during which the migratory process was monitored using a DM-IL LED microscope. The percentage of migration was calculated by measuring the tumor cell free area at different times using ImageJ software with the Chemotaxis and Migration Tool add-on.

[3] = system: PANC-1; assay: Cytotoxicity, Sulforhodamine B proliferation assay; type: cell-based, Human
Protocol: Human pancreatic ductal adenocarcinoma cell lines MIA PaCa-2 and PANC1 and the murine pancreatic cancer cell line Panc02 were used. All cell lines were cultured in Dulbecco's modified Eagle medium (DMEM) supplemented with 10% fetal bovine serum and 1% streptomycin penicillin (Sigma-Aldrich). Cells were maintained in monolayer culture in an atmosphere of 37° C. and 5% CO2 and passaged using 0.25% trypsin and 0.02% EDTA.
Panc02, PANC-1 and MIA PaCa-2 cell lines were treated with NP-ACP-OLA and NP-ACP-OLA-AA to determine their cytotoxic effect. The toxicity of NP-ACP and NP-ACP-AA (controls) was tested in all cell lines. For this, PANC-1 cells were seeded at densities of 8×10^3 cells/well and Panc02 and MIA PaCa-2 cells at densities of 2.5×10^3 cells/well in 48-well plates, incubated overnight and exposed to DMSO (OLA solvent), OLA (in different concentration ranges depending on the cell line used), NPs with and without OLA and ascorbic acid for 72 h. Subsequently, the cells were fixed with 10% trichloroacetic acid for 20 minutes and washed three times with distilled water. […] Finally, the optical density (OD) of the dye was measured with a Titertek Multiskan colorimeter (Flow) at 492 nm. Proliferation percentages (Pf %) were calculated as: Pf %=(OD of sample/OD of negative control)×100. […]

[4] = system: PANC-1-induced tumors; assay: In vivo tumor growth and survival, mice with PANC-1-induced tumors; settings: 25 mg/kg OLA intraperitoneally every 3 days, 10 cycles
Protocol: Male and female NOD scid gamma mice generated by the Centro de Instrumentación Científica of the University of Granada were used for the in vivo study. All mice (body weight: 20-25 g) were housed in cages with free access to water and food prior to the experiments and were maintained under controlled temperature, light and humidity (22.0±2° C., 12 h light-dark cycle and 40-70% relative humidity), in specific pathogen-free conditions with sterile atmosphere controlled by HEPA filters. The study was approved by the Ethical Committee for Animal Experimentation of the University of Granada (reference code: 16/01/2020/005) and was performed in accordance with its guidelines. Tumors were induced by subcutaneous injection of 9×10^5 cells derived from the PANC1 cell line into the right flank of NOD-SCID gamma mice. When the tumor was palpable, animals were randomly divided into four groups (n=8-10 mice per group, selecting the tumor-inducing mice): PANC1 mice treated with OLA solvent-(group I), OLA (group II), NP-ACP-AA (group III) and NP-ACP-OLA-AA (group IV). The OLA solvent was 5% DMSO, 40% PEG300, 5% Tween-80 and 50% saline and the NPs were dispersed in saline. […] Weights and deaths were carefully recorded throughout the period and tumor volume was measured with a digital caliper. Tumor volume (mm^3) was calculated as follows: V (mm^3)=(a×b2×π)/6. […]

time AA remained before being degraded ([1]; 10.5 ppm) [h] | half-life at 10.5 ppm [1] [min] | Structure (SMILES) | inhibition of cell migration compared to untreated cells [2] | Cl50 in PANC-1 higher than in MIA PaCa-2 ([3]; PANC-1 vs MIA PaCa-2) [times] | Cl50 in PANC-1 higher than in Panc02 ([3]; PANC-1 vs Panc02) [times] | decrease in tumor volume compared to untreated control mice [4] [%] | survival of mice [4] [%]
≤ 12 | 162 | O=C1O[C@H]([C@@H](O)CO)C(O)=C1O [AA, ascorbic acid] |  |  |  |  | 
 |  | O=C(c1cc(Cc2n[nH]c(=O)c3ccccc23)ccc1F)N1CCN(C(=O)C2CC2)CC1 [OLA, Olaparib] | inhibited migration only at 72 hours | 8.5 | 7.5 | 28.3 | 44
